What was measured:
[1] = molecular target: T1, human CYP11B2 (Homo sapiens, UniProt P19099); test: G-402 cellular enzyme assay, human CYP11B2 (aldosterone release, HTRF); type: cell-based; details: G-402 cells expressing human CYP11B2; 1 μM Deoxycorticosterone
T1 construct: expressed in transfected cells
T1 sequence (P19099 25-503): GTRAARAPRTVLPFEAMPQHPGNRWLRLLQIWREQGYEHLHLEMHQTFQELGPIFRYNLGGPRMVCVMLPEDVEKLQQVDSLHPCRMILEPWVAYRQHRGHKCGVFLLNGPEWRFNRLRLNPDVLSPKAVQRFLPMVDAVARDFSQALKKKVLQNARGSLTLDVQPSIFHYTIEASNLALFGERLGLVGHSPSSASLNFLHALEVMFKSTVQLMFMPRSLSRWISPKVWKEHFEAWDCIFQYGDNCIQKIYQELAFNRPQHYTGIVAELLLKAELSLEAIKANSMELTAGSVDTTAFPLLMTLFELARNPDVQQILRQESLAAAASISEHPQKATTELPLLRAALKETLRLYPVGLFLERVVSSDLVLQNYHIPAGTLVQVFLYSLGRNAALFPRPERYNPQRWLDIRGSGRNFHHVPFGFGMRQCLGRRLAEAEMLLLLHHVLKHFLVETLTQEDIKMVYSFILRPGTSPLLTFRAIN
From the text: (§1) Herein we identified the use of the G-402 cell line as a host cell to ectopically express (transiently or stably) enzymes of the CYP11 family. Specifically we developed stable G-402 cells expressing ectopically human CYP11B1, human CYP11B2, human CYP11A1, cynomolgus CYP11B1 or cynomolgus CYP11B2 enzyme activity. Importantly the identified cell line G-402 expresses co-factors (adrenodoxin and adrenodoxin reductase) important for the activity of the CYP11 family and no relevant enzyme activity of the CYP11 family (in comparison to H295R cells) was detected in these cells. Therefore the G-402 cell line is uniquely suited as a host cell for the ectopic expression of enzymes from the CYP11 family.
(§2) G-402 cells can be obtained from ATCC(CRL-1440) and were originally derived from a renal leiomyoblastoma.
(§3) The expression plasmids contains the ORF for either human/cyno CYP11B1 or CYP11B2 under the control of a suitable promoter (CMV-promoter) and a suitable resistance marker (neomycin). Using standard techniques the expression plasmid is transfected into G-402 cells and these cells are then selected for expressing the given resistance markers. Individual cell-clones are then selected and assessed for displaying the desired enzymatic activity using 11-Deoxycorticosterone (Cyp11B2) or 11-Deoxycortisol (Cyp11B1) as a substrate.
(§4) G-402 cells expressing CYP11 constructs were established as described above and maintained in McCoy's 5a Medium Modified, ATCC Catalog No. 30-2007 containing 10% FCS and 400 μg/ml G418 (Geneticin) at 37° C. under an atmosphere of 5% CO2/95% air. Cellular enzyme assays were performed in DMEM/F12 medium containing 2.5% charcoal treated FCS and appropriate concentration of substrate (0.3-10 uM 11-Deoxycorticosterone, 11-Deoxycortisol or Corticosterone). For assaying enzymatic activity, cells were plated onto 96 well plates and incubated for 16 h. An aliquot of the supernatant is then transferred and analyzed for the concentration of the expected product (Aldosterone for CYP11B2; Cortisol for CYP11B1). The concentrations of these steroids can be determined using HTRF assays from CisBio analyzing either Aldosterone or Cortisol.
(§5) Inhibition of the release of produced steroids can be used as a measure of the respective enzyme inhibition by test compounds added during the cellular enzyme assay. The dose dependent inhibition of enzymatic activity by a compound is calculated by means of plotting added inhibitor concentrations (x-axes) vs. measured steroid/product level (y-axes). The inhibition is then calculated by fitting the following 4-parameter sigmoidal function (Morgan-Mercer-Flodin (MMF) model) to the raw data points using the least squares method:
(§6) [formula] wherein, A is the maximum y value, B is the EC50 factor determined using XLFit, C is the minimum y value and D is the slope value.
(§7) EC50 values for compounds claimed herein were tested with the G402-based assay system described. Cyp11B2 enzyme activity was tested in presence of 1 μM Deoxycorticosterone and variable amounts of inhibitors; Cyp11B1 enzyme activity was tested in presence of 1 μM Deoxycortisol and variable amounts of inhibitors.

[2] = molecular target: T2, human CYP11B1 (Homo sapiens, UniProt P15538); test: G-402 cellular enzyme assay, human CYP11B1 (cortisol release, HTRF); type: cell-based; details: G-402 cells expressing human CYP11B1; 1 μM Deoxycortisol
T2 construct: expressed in transfected cells
T2 sequence (P15538 25-503): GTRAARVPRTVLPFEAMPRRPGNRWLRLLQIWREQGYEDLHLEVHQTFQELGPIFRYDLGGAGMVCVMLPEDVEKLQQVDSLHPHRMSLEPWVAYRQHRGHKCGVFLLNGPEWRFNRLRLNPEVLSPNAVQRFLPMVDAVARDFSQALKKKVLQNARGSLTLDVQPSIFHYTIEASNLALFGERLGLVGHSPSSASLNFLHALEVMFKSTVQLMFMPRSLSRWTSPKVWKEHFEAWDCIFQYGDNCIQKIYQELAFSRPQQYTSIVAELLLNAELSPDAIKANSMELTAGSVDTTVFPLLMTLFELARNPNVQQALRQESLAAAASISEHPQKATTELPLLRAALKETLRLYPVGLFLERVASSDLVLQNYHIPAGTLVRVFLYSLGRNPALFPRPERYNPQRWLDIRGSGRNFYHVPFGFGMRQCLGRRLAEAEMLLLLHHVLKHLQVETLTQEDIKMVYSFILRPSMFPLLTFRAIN
From the text: as §1, §2, §3, §4, §5, §6, §7

SMILES	EC50 [1]	EC50 [2]
CCC(=O)NC(C)c1cncc(-c2ccc3c(c2)CCC(=O)N3C)c1C (single isomer, unassigned) [Example 266, N-{(R or S)-1-[4-Methyl-5-(1-methyl-2-oxo-1,2,3,4-tetrahydro-quinolin-6-yl)-pyridin-3-yl]-ethyl}-propionamide]	54 nM	623 nM
CCS(=O)(=O)Nc1cncc(-c2ccc3c(c2)CCC(=O)N3C)c1 [Example 1, Ethanesulfonic acid [5-(1-methyl-2-oxo-1,2,3,4-tetrahydro-quinolin-6-yl)-pyridin-3-yl]-amide]	170 nM	3700 nM
CC(=O)OCC(=O)Nc1cncc(-c2ccc3c(c2)CCC(=O)N3C)c1 [Example 2, Acetic acid [5-(1-methyl-2-oxo-1,2,3,4-tetrahydro-quinolin-6-yl)-pyridin-3-ylcarbamoyl]-methyl ester]	430 nM	> 3000 nM
CN1C(=O)CCc2cc(-c3cncc(NC(=O)CO)c3)ccc21 [Example 3, 2-Hydroxy-N-[5-(1-methyl-2-oxo-1,2,3,4-tetrahydro-quinolin-6-yl)-pyridin-3-yl]-acetamide]	715 nM	> 3000 nM
CN1C(=O)CCc2cc(-c3cncc(NCCO)c3)ccc21 [Example 4, 6-[5-(2-Hydroxy-ethylamino)-pyridin-3-yl]-1-methyl-3,4-dihydro-1H-quinolin-2-one]	11 nM	350 nM
CN1C(=O)CCc2cc(-c3cncc(N4CCC[C@H]4CO)c3)ccc21 [Example 5, 6-[5-((S)-2-Hydroxymethyl-pyrrolidin-1-yl)-pyridin-3-yl]-1-methyl-3,4-dihydro-1H-quinolin-2-one]	19 nM	1080 nM
CN1C(=O)CCc2cc(-c3cncc(N4CCC[C@@H]4CO)c3)ccc21 [Example 6, 6-[5-((R)-2-Hydroxymethyl-pyrrolidin-1-yl)-pyridin-3-yl]-1-methyl-3,4-dihydro-1H-quinolin-2-one]	98 nM	3340 nM
CN1C(=O)CCc2cc(-c3cncc(CN4CCC[C@H]4CO)c3)ccc21 [Example 7, 6-[5-((S)-2-Hydroxymethyl-pyrrolidin-1-ylmethyl)-pyridin-3-yl]-1-methyl-3,4-dihydro-1H-quinolin-2-one]	56 nM	570 nM
CN1C(=O)CCc2cc(-c3cncc(CN4C(=O)CC[C@H]4CO)c3)ccc21 [Example 8, 6-[5-((S)-2-Hydroxymethyl-5-oxo-pyrrolidin-1-ylmethyl)-pyridin-3-yl]-1-methyl-3,4-dihydro-1H-quinolin-2-one]	49 nM	2330 nM
CCNC[C@@H]1CCCN1c1cncc(-c2ccc3c(c2)CCC(=O)N3C)c1 [Example 9, 6-[5-((S)-2-Ethylaminomethyl-pyrrolidin-1-yl)-pyridin-3-yl]-1-methyl-3,4-dihydro-1H-quinolin-2-one]	829 nM	> 10000 nM
COC[C@@H]1CCCN1c1cncc(-c2ccc3c(c2)CCC(=O)N3C)c1 [Example 10, 6-[5-((S)-2-Methoxymethyl-pyrrolidin-1-yl)-pyridin-3-yl]-1-methyl-3,4-dihydro-1H-quinolin-2-one]	20 nM	170 nM
CN1C(=O)CCc2cc(-c3cncc(N4CCC[C@H]4Cn4cncn4)c3)ccc21 [Example 11]	76 nM	410 nM
CN1C(=O)CCc2cc(-c3cncc(NCc4ccccc4)c3)ccc21 [Example 12]	2 nM	50 nM
CN1C(=O)CCc2cc(-c3cncc(N4C(=O)CC[C@H]4CO)c3)ccc21 [Example 13]	319 nM	17900 nM
CN1C(=O)CCc2cc(-c3cncc(N4CCCC4=O)c3)ccc21 [Example 14]	308 nM	1570 nM
CCS(=O)(=O)NCc1cncc(-c2ccc3c(c2)CCC(=O)N3C)c1 [Example 15]	19 nM	1200 nM

SMILES	EC50 [1]	EC50 [2]
CCS(=O)(=O)NCc1cncc(-c2cc3c(cc2F)N(C)C(=O)CC3)c1 [Example 16, ethanesulfonic acid [5-(7-fluoro-1-methyl-2-oxo-1,2,3,4-tetrahydro-quinolin-6-yl)-pyridin-3-ylmethyl]-amide]	11 nM	860 nM
CCS(=O)(=O)NCc1cncc(-c2ccc3c(c2)C(C)(C)CC(=O)N3C)c1 [Example 17]	4650 nM	> 10000 nM
CN1C(=O)CCc2cc(-c3cncc(CN4CCCC4=O)c3)ccc21 [Example 18]	58 nM	750 nM
CN1C(=O)CCc2cc(-c3cncc(CN4CCCCC4=O)c3)ccc21 [Example 19]	23 nM	800 nM
CN1C(=O)CCc2cc(-c3cncc(CN4CCS(=O)(=O)CC4)c3)ccc21 [Example 20]	3 nM	20 nM
COC[C@@H]1CCCN1Cc1cncc(-c2ccc3c(c2)CCC(=O)N3C)c1 [Example 21]	21 nM	260 nM
COC(=O)[C@@H]1CCCN1Cc1cncc(-c2ccc3c(c2)CCC(=O)N3C)c1 [Example 22]	25 nM	100 nM
CN1C(=O)CCc2cc(-c3cncc(CN4CCC[C@H]4COCC(F)(F)F)c3)ccc21 [Example 23]	32 nM	390 nM
CN1C(=O)CCc2cc(-c3cncc(NCCO)n3)ccc21 [Example 24]	7 nM	220 nM
CN1C(=O)CCc2cc(-c3cncc(NCc4ccccc4)n3)ccc21 [Example 25]	5 nM	110 nM
CN1C(=O)CCc2cc(-c3cncc(NCCO)n3)c(F)cc21 [Example 26]	18 nM	570 nM
CN1C(=O)CCc2cc(-c3cncc(NCc4ccccc4)n3)c(F)cc21 [Example 27]	7 nM	270 nM
CN1C(=O)CCc2cc(-c3cncc(N4CC5(CN(C(=O)OC(C)(C)C)C5)C4)n3)ccc21 [Example 28, 6-[6-(1-methyl-2-oxo-1,2,3,4-tetrahydro-quinolin-6-yl)-pyrazin-2-yl]-2,6-diaza-spiro[3.3]heptane-2-carboxylic acid tert-butyl ester]	121 nM	780 nM
CN1C(=O)CCc2cc(-c3cncc(N4CC5(CN(C(=O)OC(C)(C)C)C5)C4)c3)ccc21 [Example 29]	260 nM	5560 nM
CC(C)[C@H](CO)Nc1cncc(-c2ccc3c(c2)CCC(=O)N3C)c1 [Example 30, 6-[5-((R)-1-Hydroxymethyl-2-methyl-propylamino)-pyridin-3-yl]-1-methyl-3,4-dihydro-1H-quinolin-2-one]	170 nM	10200 nM

— patent US9260408B2, “Dihydroquinoline-2-one derivatives” (Hoffmann-La Roche Inc., priority 2011, dated 2016)
